According to patent US5585356A, “Matrix metalloproteinase peptides: role in diagnosis and therapy” (priority 1994, dated 1996):
Where no end group is shown, it is not given here.

Key:
type IV procollagenase = type IV procollagenase (Homo sapiens, UniProt P08253); conditions: 10 mM EDTA; 1 mM pAPMA, 37° C.
Experimental: 20 μl aliquots of A2058 melanoma cell conditioned media were activated in the presence of 1.0 mM pAPMA for the indicated times (min). The reactions were stopped by the addition of EDTA to 10 mM and the samples were electrophoresed on a 9% acrylamide gel with or without gelatin. The gelatin containing gels were developed as zymograms after electrophoresis.
Stock solutions of 0.01M p-APMA in 0.05N NaOH were prepared fresh daily. Proenzyme samples were incubated with a final concentration 0.5 or 1.0 mM p-APMA for varying times (0-16 hours) at 37° C. Following incubation, the samples were analyzed directly by NaDodSO4 -PAGE on 9% acrylamide gels containing 0.1% gelatin (gelatin zymogram). Alternatively, the samples were run on 9% NaDodSO4 -PAGE and electroblotted onto Immobilon P membranes (Millipore).

type IV collagenase = target: T1, type IV collagenase (Homo sapiens, UniProt P08253); assay: soluble type IV collagenase assay (3H-type IV collagen degradation); assay type: biochemical; conditions: peptide 0.1 mM; purified activated type IV collagenase, pepsinized type IV collagen (FIG. 11)
T1 construct: endogenous in cells; host or cells: human A2058 melanoma cells
T1 sequence (P08253 110-660): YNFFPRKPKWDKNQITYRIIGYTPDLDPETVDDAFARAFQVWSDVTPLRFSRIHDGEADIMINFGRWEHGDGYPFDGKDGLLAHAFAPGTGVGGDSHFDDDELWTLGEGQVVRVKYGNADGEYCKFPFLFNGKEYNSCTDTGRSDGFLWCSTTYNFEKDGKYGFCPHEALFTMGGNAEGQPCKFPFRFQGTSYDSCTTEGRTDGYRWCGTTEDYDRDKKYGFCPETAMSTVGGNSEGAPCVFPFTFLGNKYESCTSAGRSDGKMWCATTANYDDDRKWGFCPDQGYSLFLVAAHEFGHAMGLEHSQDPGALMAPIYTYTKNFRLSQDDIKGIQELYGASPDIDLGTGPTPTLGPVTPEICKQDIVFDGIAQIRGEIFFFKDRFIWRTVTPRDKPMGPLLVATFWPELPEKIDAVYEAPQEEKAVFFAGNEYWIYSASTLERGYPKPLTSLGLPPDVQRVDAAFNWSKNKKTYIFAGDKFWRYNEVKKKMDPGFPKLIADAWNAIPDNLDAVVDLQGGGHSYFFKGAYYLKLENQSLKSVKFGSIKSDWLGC
Experimental: FIG. 11 illustrates the dose dependent inhibition of purified activated type IV collagenase cleavage of pepsinized type IV collagen by the designated synthetic peptides. Peptide TMRKPRCGNPDVAN at a concentration of 0.1 mM inhibits 80% of the enzyme activity.
The procedure for the collagenase assay of this example utilized the following preparation.
1. Place enzyme sample activator (usually 1 mM pAPMA) and test solution in 1.5 ml Eppendorf tube. Combined volume must equal 60 μl. Add 1× collagenase buffer, if necessary. If necessary, preincubate.
2. Prepare type Iv collagen substrate by diluting stock ^3 H-type IV collagen (NEN #NET-931 lot #2511-018) 1:120 with 1× collagenase buffer. Heat to 55° C. for 10 minutes and cool on ice.
3. Add 5 μl of diluted mH-type IV collagen solution to each assay tube. Vortex to mix and incubate at 28° C. for 4 hours.
4. At the end of the incubation period, add 2 μl of carrier BSA solution and 7 μl of TCATAP solution. Vortex mix and allow to stand on ice for at least 10 minutes.
5. Pellet the precipitate by centrifuging in the microfuge for 10 minutes with the speed set at 6. Orient the tubes when placing them in the microfuge in order that the position of the pellet will be known.
6. Immediately after centrifugation, aspirate 55 μl of the supernatant and place in a scintillation vial. Add 5 ml of scintillation cocktail, shake well and count. […]

Chain of type IV procollagenase (P08253 30-660 limits assumed): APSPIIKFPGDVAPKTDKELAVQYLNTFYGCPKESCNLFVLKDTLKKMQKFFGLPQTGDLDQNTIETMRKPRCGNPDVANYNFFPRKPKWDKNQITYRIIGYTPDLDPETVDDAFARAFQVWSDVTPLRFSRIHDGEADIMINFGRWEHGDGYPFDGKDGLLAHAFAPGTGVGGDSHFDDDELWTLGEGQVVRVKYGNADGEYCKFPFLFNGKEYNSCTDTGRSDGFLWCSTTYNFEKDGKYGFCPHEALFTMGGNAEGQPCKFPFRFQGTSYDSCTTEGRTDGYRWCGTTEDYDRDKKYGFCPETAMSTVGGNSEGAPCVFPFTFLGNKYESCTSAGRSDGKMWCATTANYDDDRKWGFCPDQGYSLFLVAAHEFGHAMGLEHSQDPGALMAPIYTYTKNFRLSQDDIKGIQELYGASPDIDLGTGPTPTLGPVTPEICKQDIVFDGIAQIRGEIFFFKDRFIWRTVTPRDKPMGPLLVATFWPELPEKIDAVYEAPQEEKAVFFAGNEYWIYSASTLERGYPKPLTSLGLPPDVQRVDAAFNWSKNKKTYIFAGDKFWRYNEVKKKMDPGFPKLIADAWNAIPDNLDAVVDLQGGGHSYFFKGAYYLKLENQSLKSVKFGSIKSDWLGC

| Molecule | conversion of 70 kDa band to 62 kDa form (type IV procollagenase) | inhibition of enzyme activity (type IV collagenase) [%] |
| --- | --- | --- |
| O=C(O)CN(CCN(CC(=O)O)CC(=O)O)CC(=O)O [EDTA] | completely inhibited | – |
| TMRKPRCGNPDVAN [Peptide 74, TMRKPRCGNPDVAN] | – | 80 |
